# Biological target: VMAT2 (human platelet homogenate) (Homo sapiens (Human), UniProt Q05940)
# Experiment: Human VMAT2 Ki, slightly modified competition binding procedure (Table 11);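 note: competition binding with 90 min incubation at 25 °C, after which filter-retained radioligand was measured by scintillation counting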
# Settings: 10 nM 3H-dihydrotetrabenazine
# Description: Following incubation at 25° C. for 90 minutes, bound radioligand was collected by rapid filtration onto GF/B glass fiber filters using a Unifilter-96 Harvester (PerkinElmer). Filter plates were pre-treated with 0.1% polyethylenimine and allowed to dry overnight, and following harvesting the filter plates were washed with 800 d VMAT2 binding buffer. Bound radioligand was quantified by scintillation counting using a Topcount NXT (PerkinElmer).
# Chain of VMAT2 (human platelet homogenate) (Q05940 whole entry): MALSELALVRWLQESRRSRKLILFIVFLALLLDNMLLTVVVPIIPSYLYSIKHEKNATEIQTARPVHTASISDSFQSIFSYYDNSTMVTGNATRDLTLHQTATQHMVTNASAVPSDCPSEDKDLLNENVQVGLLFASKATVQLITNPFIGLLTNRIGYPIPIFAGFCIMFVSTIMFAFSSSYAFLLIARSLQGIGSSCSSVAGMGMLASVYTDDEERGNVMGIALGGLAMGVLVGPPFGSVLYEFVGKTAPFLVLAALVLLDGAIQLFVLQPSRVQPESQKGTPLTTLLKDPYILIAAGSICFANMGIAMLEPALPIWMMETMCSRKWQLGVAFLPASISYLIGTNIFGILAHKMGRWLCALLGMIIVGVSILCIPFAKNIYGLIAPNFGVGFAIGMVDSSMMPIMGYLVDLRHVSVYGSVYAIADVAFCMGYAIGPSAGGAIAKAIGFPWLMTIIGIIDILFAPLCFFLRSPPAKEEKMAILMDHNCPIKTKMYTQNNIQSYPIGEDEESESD
row,Ki [µM],Compound
1,< 0.01,"COc1cc2c(cc1OC)[C@H]1C[C@@H](COC(=O)CCC(N)=O)[C@H](CC(C)C)CN1CC2 [Compound 2-1, [(2R,3S,11bR)-9,10-dimethoxy-3-(2-methylpropyl)-1H,2H,3H,4H,6H,7H,11bH-pyrido[2,1-a]isoquinolin-2-yl]methyl 3-carbamoylpropanoate]"
2,< 0.01,"COc1cc2c(cc1OC)[C@H]1C[C@@H](COC(=O)N3CCN4CCCCCC4C3)[C@H](CC(C)C)CN1CC2 (stereo partly drawn) [Compound 5-48, [(2R,3S,11bR)-9,10-dimethoxy-3-(2-methylpropyl)-1H,2H,3H,4H,6H,7H,11bH-pyrido[2,1-a]isoquinolin-2-yl]methyl decahydropiperazino[1,2-a]azepine-2-carboxylate]"
3,< 0.01,"COc1cc2c(cc1OC)[C@H]1C[C@@H](COC(=O)CCN3CCNCC3)[C@H](CC(C)C)CN1CC2 [Compound 4-37, [(2R,3S,11bR)-9,10-dimethoxy-3-(2-methylpropyl)-1H,2H,3H,4H,6H,7H,11bH-pyrido[2,1-a]isoquinolin-2-yl]methyl 3-(piperazin-1-yl)propanoate]"
4,< 0.01,"COc1cc2c(cc1OC)[C@H]1C[C@@H](COC(=O)[C@H]3CCN(Cc4ccccc4)C3)[C@H](CC(C)C)CN1CC2 [Compound 2-26, [(2R,3S,11bR)-9,10-dimethoxy-3-(2-methylpropyl)-1H,2H,3H,4H,6H,7H,11bH-pyrido[2,1-a]isoquinolin-2-yl]methyl (3S)-1-benzylpyrrolidine-3-carboxylate]"
5,0.01 to 0.5,"COc1cc2c(cc1OC)[C@H]1C[C@@H](COC(=O)[C@H](N)c3ccc(C(F)(F)F)cc3)[C@H](CC(C)C)CN1CC2 [Compound 4-30, [(2R,3S,11bR)-9,10-dimethoxy-3-(2-methylpropyl)-1H,2H,3H,4H,6H,7H,11bH-pyrido[2,1-a]isoquinolin-2-yl]methyl (2R)-2-amino-2-[4-(trifluoromethyl)phenyl]acetate]"
6,0.01 to 0.5,"COc1cc2c(cc1OC)[C@H]1C[C@@H](COC(=O)C[C@@H]3NC(=O)NC3=O)[C@H](CC(C)C)CN1CC2 [Compound 2-33, [(2R,3S,11bR)-9,10-dimethoxy-3-(2-methylpropyl)-1H,2H,3H,4H,6H,7H,11bH-pyrido[2,1-a]isoquinolin-2-yl]methyl 2-[(4S)-2,5-dioxoimidazolidin-4-yl]acetate]"
7,< 0.01,"COc1cc2c(cc1OC)[C@H]1C[C@@H](COC(=O)C3CN(Cc4ccccc4)C3)[C@H](CC(C)C)CN1CC2 [Compound 2-21, [(2R,3S,11bR)-9,10-dimethoxy-3-(2-methylpropyl)-1H,2H,3H,4H,6H,7H,11bH-pyrido[2,1-a]isoquinolin-2-yl]methyl 1-benzylazetidine-3-carboxylate]"
8,0.01 to 0.5,"COc1cc2c(cc1OC)[C@H]1C[C@@H](COC(=O)C(C)(C)C)[C@H](CC(C)C)CN1CC2 [Compound 2-17, [(2R,3S,11bR)-9,10-dimethoxy-3-(2-methylpropyl)-1H,2H,3H,4H,6H,7H,11bH-pyrido[2,1-a]isoquinolin-2-yl]methyl 2,2-dimethylpropanoate]"
9,0.01 to 0.5,"COc1cc2c(cc1OC)[C@H]1C[C@@H](COCC3CCNCC3)[C@H](CC(C)C)CN1CC2 [Compound 10-5, 4-({[(2R,3S,11bR)-9,10-dimethoxy-3-(2-methylpropyl)-1H,2H,3H,4H,6H,7H,11bH-pyrido[2,1-a]isoquinolin-2-yl]methoxy}methyl)piperidine]"
10,0.01 to 0.5,"COc1cc2c(cc1OC)[C@H]1C[C@@H](COC(=O)C3NCCc4ccccc43)[C@H](CC(C)C)CN1CC2 (stereo partly drawn) [Compound 4-21, [(2R,3S,11bR)-9,10-dimethoxy-3-(2-methylpropyl)-1H,2H,3H,4H,6H,7H,11bH-pyrido[2,1-a]isoquinolin-2-yl]methyl 1,2,3,4-tetrahydroisoquinoline-1-carboxylate]"
11,0.01 to 0.5,"COc1cc2c(cc1OC)[C@H]1C[C@@H](COC(=O)N[C@@H]3CCCC[C@H]3C(=O)O)[C@H](CC(C)C)CN1CC2 [Compound 5-35, (1R,2R)-2-[({[(2R,3S,11bR)-9,10-dimethoxy-3-(2-methylpropyl)-1H,2H,3H,4H,6H,7H,11bH-pyrido[2,1-a]isoquinolin-2-yl]methoxy}carbonyl)amino]cyclohexane-1-carboxylic acid]"

# Reference: patent US11053242B2, “[9,10-dimethoxy-3-(2-methylpropyl)-1H,2H,3H,4H,6H,7H,11BH-pyrido-[2,1-a]isoquinolin-2-yl]methanol and compounds, compositions and methods relating thereto” (Neurocrine Biosciences, Inc., priority 2015, dated 2021)
